US6667329B1, “Agents with antidepressant action, containing pramipexol and second antidepressant” (Boehringer Ingelheim Pharma GmbH & Co. KG, priority 1998, dated 2003)

Test system: rats
Test: forced swimming test in rats
Details: series Pramipexole + amitriptyline
From the text: The test can be carried out as follows for each of the combinations of active substances tested.

Structure (SMILES)	Immobility time [s]
CN(C)CCC=C1c2ccccc2CCc2ccccc21 [Amitriptyline]	174.6 ± 9.2
CCCNC1CCc2nc(N)sc2C1.Cl.Cl (centres unmarked) [Pramipexole, 2-amino-6-n-propylamino4,5,6,7-tetrahydrobenzo-thiazole-dihydrochloride]	164.3 ± 9.8
